Test results as given in patent publication US20260078119A1, “DEGRADER COMPOUNDS AND USES THEREOF” (Bristol-Myers Squibb Company, priority 2024, published 2026).

Legend:
FAK = target: T1, FAK (Homo sapiens, UniProt Q05397); assay: FAK-HiBiT Degradation Assay; format: cell-based; conditions: for DC50: JHH-4-FAK-HiBiT clone d01 cells, two hours incubation, 10-point dose response, 3-fold dilution starting at 1 μM, Nano-Glo HiBiT luminescence, read-out: FAK HiBiT EC50; for FAK HiBiT Ymin: lower limit of the four parameter fit (value A), Ymax derived using DMSO control, JHH-4-FAK-HiBiT cells, two hours
T1 construct: homozygous knock-in of a HiBiT tag (Promega Corporation, Madison, WI) to the C-terminus of the FAK gene in its natural genomic locus; endogenous in cells; host or cells: JHH-4-FAK-HiBiT clone d01 (CRISPR-Cas9 knock-in at the endogenous locus)
Summary of the method: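 JHH-4 cells with homozygous CRISPR knock-in of C-terminal HiBiT on endogenous FAK, treated 2 h at 37 °C with compounds in 10-point 3-fold series from 1 μM. HiBiT lytic luminescence read; EC50 from four-parameter logistic fit, Ymax set by DMSO control, Ymin as lower fit limit.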

CAL-51 cells = assay: CAL-51 Cell Proliferation Assay; format: cell-based; conditions: for EC50: Homo sapiens, 120 hours incubation, 10-point dose response, 4-fold dilutions starting at 10 μM, Cell-Titer-Glo, read-out: CAL-51 Prolif EC50; for CAL-51 Prolif Ymin: minimal percent of DMSO control observed in the concentrations tested (Ymin-obs), 120 hours
Summary of the method: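 Cells seeded at 350/well in RPMI complete medium onto 10-point, 4-fold compound dilutions from 10 μM (0.1% DMSO), in duplicate, and grown 120 h at 37 °C. CellTiter-Glo luminescence, blank-subtracted and normalised to DMSO, was fitted with a four-parameter logistic to give EC50; Ymin-obs is the lowest observed percent of DMSO control.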

T1 sequence (Q05397 whole entry): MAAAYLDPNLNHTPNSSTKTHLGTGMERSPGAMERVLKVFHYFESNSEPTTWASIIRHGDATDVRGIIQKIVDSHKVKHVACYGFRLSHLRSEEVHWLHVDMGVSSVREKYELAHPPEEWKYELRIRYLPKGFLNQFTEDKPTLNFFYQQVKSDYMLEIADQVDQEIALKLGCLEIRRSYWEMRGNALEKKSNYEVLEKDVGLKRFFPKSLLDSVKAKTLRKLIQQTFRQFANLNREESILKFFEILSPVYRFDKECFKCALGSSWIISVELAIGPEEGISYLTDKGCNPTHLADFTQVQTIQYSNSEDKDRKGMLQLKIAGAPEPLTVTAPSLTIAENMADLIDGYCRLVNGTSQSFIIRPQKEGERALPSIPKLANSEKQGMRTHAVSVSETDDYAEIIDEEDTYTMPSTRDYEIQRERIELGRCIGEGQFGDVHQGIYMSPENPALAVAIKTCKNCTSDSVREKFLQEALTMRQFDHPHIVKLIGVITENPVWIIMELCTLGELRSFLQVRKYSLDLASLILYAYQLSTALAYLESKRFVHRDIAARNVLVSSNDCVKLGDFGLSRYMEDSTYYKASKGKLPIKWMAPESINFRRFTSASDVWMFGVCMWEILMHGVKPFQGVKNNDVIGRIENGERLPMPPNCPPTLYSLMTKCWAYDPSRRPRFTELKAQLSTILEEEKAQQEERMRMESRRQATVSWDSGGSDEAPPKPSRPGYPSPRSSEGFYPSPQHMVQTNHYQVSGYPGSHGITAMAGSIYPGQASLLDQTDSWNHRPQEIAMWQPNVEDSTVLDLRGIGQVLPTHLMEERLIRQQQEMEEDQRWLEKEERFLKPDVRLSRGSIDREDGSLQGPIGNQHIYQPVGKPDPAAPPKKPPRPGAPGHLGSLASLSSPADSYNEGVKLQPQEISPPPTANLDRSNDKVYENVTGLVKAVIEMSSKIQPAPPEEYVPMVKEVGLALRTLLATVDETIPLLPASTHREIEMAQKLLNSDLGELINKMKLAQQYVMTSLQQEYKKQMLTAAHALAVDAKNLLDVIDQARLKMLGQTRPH

O=C1CCC(N2Cc3cc(Cn4ncc5c(-c6ncc(C(F)(F)F)cc6Cl)cc(N[C@H]6CCOC6)nc54)ccc3C2=O)C(=O)N1 (stereo partly drawn) [Example 132, 3-[5-({4-[3-chloro-5-(trifluoromethyl)pyridin-2-yl]-6-{[(3S)-oxolan-3-yl]amino}-1H-pyrazolo[3,4-b]pyridin-1-yl}methyl)-1-oxo-2,3-dihydro-1H-isoindol-2-yl]piperidine-2,6-dione]
DC50 (FAK): ≥ 1000 nM | FAK HiBiT Ymin (FAK): 89.82 | EC50 (CAL-51 cells): 0.1 nM | CAL-51 Prolif Ymin (CAL-51 cells): 89.52

O=C1CCC(N2Cc3cc(Cn4ncc5c(-c6ncc(C(F)(F)F)cc6Cl)cc(N[C@@H]6CCOC6)nc54)ccc3C2=O)C(=O)N1 (stereo partly drawn) [Example 133, 3-[5-({4-[3-chloro-5-(trifluoromethyl)pyridin-2-yl]-6-{[(3R)-oxolan-3-yl]amino}-1H-pyrazolo[3,4-b]pyridin-1-yl}methyl)-1-oxo-2,3-dihydro-1H-isoindol-2-yl]piperidine-2,6-dione]
DC50 (FAK): ≥ 1000 nM | FAK HiBiT Ymin (FAK): 82.45 | EC50 (CAL-51 cells): 23.3 nM | CAL-51 Prolif Ymin (CAL-51 cells): 84.63

O=C1CC[C@H](N2Cc3cc(Cn4ncc5c(-c6ncc(C(F)(F)F)cc6Cl)cc(NC6CCOCC6)nc54)ccc3C2=O)C(=O)N1 [Example 134, (3S)-3-[5-({4-[3-chloro-5-(trifluoromethyl)pyridin-2-yl]-6-[(oxan-4-yl)amino]-1H-pyrazolo[3,4-b]pyridin-1-yl}methyl)-1-oxo-2,3-dihydro-1H-isoindol-2-yl]piperidine-2,6-dione]
DC50 (FAK): ≥ 1000 nM | FAK HiBiT Ymin (FAK): 91.34 | EC50 (CAL-51 cells): 8.5 nM | CAL-51 Prolif Ymin (CAL-51 cells): 65.79

COc1cc(C2CC2)cnc1-c1cc(N2CC(F)C2)nc2c1cnn2Cc1ccc2c(c1)CN(C1CCC(=O)NC1=O)C2=O (stereo not shown) [Example 135, 3-(5-{[4-(5-cyclopropyl-3-methoxypyridin-2-yl)-6-(3-fluoroazetidin-1-yl)-1H-pyrazolo[3,4-b]pyridin-1-yl]methyl}-1-oxo-2,3-dihydro-1H-isoindol-2-yl)piperidine-2,6-dione]
DC50 (FAK): ≥ 1000 nM | FAK HiBiT Ymin (FAK): 87.67 | EC50 (CAL-51 cells): ≥ 10000 nM | CAL-51 Prolif Ymin (CAL-51 cells): 84.14

CN1CCN(c2cc(-c3ncc(C(F)(F)F)cc3Cl)c3cnn(Cc4ccc5c(c4)CN([C@H]4CCC(=O)NC4=O)C5=O)c3n2)CC1 [Example 136, (3S)-3-[5-({4-[3-chloro-5-(trifluoromethyl)pyridin-2-yl]-6-(4-methylpiperazin-1-yl)-1H-pyrazolo[3,4-b]pyridin-1-yl}methyl)-1-oxo-2,3-dihydro-1H-isoindol-2-yl]piperidine-2,6-dione]
DC50 (FAK): ≥ 1000 nM | FAK HiBiT Ymin (FAK): 96.76 | EC50 (CAL-51 cells): ≥ 10000 nM | CAL-51 Prolif Ymin (CAL-51 cells): 95.61

Cc1cnc(-c2cc(N3CC(F)C3)nc3c2cnn3Cc2ccc3c(c2)CN(C2CCC(=O)NC2=O)C3=O)nc1 (stereo not shown) [Example 138, 3-(5-{[6-(3-fluoroazetidin-1-yl)-4-(5-methylpyrimidin-2-yl)-1H-pyrazolo[3,4-b]pyridin-1-yl]methyl}-1-oxo-2,3-dihydro-1H-isoindol-2-yl)piperidine-2,6-dione]
DC50 (FAK): ≥ 1000 nM | FAK HiBiT Ymin (FAK): 87.20 | EC50 (CAL-51 cells): 160 nM | CAL-51 Prolif Ymin (CAL-51 cells): 89.63

C[C@]1(O)CCN(c2nc3c(cnn3Cc3ccc4c(c3)CN([C@H]3CCC(=O)NC3=O)C4=O)c(-c3ncc(C(F)(F)F)cc3Cl)c2F)C1 [Example 140, (3S)-3-[5-({4-[3-chloro-5-(trifluoromethyl)pyridin-2-yl]-5-fluoro-6-[(3S)-3-hydroxy-3-methylpyrrolidin-1-yl]-1H-pyrazolo[3,4-b]pyridin-1-yl}methyl)-1-oxo-2,3-dihydro-1H-isoindol-2-yl]piperidine-2,6-dione]
DC50 (FAK): 3.11 nM | FAK HiBiT Ymin (FAK): 9.35 | EC50 (CAL-51 cells): 2.2 nM | CAL-51 Prolif Ymin (CAL-51 cells): 29.76
